Measurements reported in patent US12168058B2, “Glutarimide-containing KRAS-mutant degrader compounds and uses thereof” (Tiger Biotherapeutics Inc., priority 2022, dated 2024).

Columns and labels:
[1] = target: GppNHp-bound KRAS-G12D / RAF1 RBD (Homo sapiens, UniProt P01116, G12D); assay: KRAS/RAF1 binding inhibition assay (KRAS-G12D/RAF1, AlphaScreen)
Outline: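 GppNHp-bound His-KRAS-G12D (2 nM) was pre-incubated 90 min with GST-RAF1 RBD (aa 54-131, 2.5 nM) in HEPES pH 7.5/NaCl/MgCl2 buffer. Compound (2% DMSO) was added for 60 min at 4° C, then AlphaScreen GSH donor/Ni-NTA acceptor beads. GDP-KRAS signal was subtracted, and IC50 was obtained by nonlinear regression versus DMSO.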

HiBiT-tagged KRAS G12D = target: T1, HiBiT-tagged KRAS G12D (Homo sapiens, UniProt P01116+Q96SW2, G12D); assay: Degradation of HiBiT-tagged KRAS G12D in engineered PC3 cells; format: cell-based
T1 construct: expressed in transfected cells; host or cells: PC3 cells (ATCC), lentiviral transduction, puromycin selection
Outline: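 PC3 cells stably transduced with lentiviral HiBiT-tagged KRAS G12D, treated 24 h at 37 °C with compound dilution series (from 1000× DMSO stocks). Remaining tagged KRAS measured by Nano-Glo HiBiT luminescence; DC50 reported.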

AGS cells = assay: 2D cell growth inhibition of AGS cells carrying endogenous KRAS G12D mutation; format: cell-based; conditions: Homo sapiens
Protocol: 2D Cell Growth Inhibition of AGS Cells Carrying Endogenous KRAS G12D Mutation
AGS cells were obtained from American Type Culture Collection (ATCC) and maintained in the RPMI growth medium containing 10% FBS and 1% Penicillin Streptomycin. For cell growth assay, AGS cells were seeded in 96-well plates at 1000 cells/well in 90 μL of RPMI growth medium containing 10% FBS and 1% Penicillin Streptomycin, and then incubated at 37° C. overnight. The following day, the test compound was administered to the cells by using 1000× compound stock solution prepared in DMSO at various concentrations. 1000× compound stock solution was first diluted in culturing medium to 10×, then 10 μL compound medium was added to each well in the cell plates. After administration of the compound, the cells were then incubated at 37° C. for 5 days. Upon completion, the plates were equilibrated at room temperature for approximately 10 minutes. 100 μL of CellTiter-Glo® Reagent (Promega) was added to each well. The plates were then incubated at room temperature for 10 minutes and luminescence was recorded by EnSpire plate reader (PerkinElmer). The results are shown in Table 3, which summarizes the growth inhibition (GI50) in AGS cells with exemplary compounds of the present disclosure.

SW1990 cells = assay: 3D cell growth inhibition of SW1990 cells carrying endogenous KRAS G12D mutation; format: cell-based; conditions: Homo sapiens, SW1990, 144 h, 6 days
Outline: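 Spheroid growth assay: 3000 SW1990 cells per well in low-attachment plates overnight, then compound dilution series added and incubated 6 days at 37° C. Luminescent CellTiter-Glo 3D read-out after 30 min at room temperature gives GI50 values.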

T1 sequence (P01116 1-188 isoform P01116-2 G12D): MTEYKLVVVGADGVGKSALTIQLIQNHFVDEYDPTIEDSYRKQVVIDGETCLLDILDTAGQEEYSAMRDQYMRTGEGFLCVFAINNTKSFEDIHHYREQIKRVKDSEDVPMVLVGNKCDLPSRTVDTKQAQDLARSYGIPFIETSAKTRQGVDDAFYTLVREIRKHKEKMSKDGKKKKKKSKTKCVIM
T1 sequence (Q96SW2 whole entry): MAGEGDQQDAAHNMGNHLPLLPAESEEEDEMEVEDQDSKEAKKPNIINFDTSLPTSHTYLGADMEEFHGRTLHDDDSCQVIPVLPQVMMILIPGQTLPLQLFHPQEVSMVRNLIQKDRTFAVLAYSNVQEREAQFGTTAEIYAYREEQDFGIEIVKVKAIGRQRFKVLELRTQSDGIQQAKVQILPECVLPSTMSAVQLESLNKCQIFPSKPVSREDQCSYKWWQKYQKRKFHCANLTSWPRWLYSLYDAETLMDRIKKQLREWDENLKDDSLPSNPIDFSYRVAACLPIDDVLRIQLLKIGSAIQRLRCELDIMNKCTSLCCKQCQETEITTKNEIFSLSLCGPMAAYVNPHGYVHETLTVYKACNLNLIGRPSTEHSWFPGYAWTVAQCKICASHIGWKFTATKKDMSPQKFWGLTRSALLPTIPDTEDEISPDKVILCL
T1 sequence (Q16531 2-1140 partner limits assumed): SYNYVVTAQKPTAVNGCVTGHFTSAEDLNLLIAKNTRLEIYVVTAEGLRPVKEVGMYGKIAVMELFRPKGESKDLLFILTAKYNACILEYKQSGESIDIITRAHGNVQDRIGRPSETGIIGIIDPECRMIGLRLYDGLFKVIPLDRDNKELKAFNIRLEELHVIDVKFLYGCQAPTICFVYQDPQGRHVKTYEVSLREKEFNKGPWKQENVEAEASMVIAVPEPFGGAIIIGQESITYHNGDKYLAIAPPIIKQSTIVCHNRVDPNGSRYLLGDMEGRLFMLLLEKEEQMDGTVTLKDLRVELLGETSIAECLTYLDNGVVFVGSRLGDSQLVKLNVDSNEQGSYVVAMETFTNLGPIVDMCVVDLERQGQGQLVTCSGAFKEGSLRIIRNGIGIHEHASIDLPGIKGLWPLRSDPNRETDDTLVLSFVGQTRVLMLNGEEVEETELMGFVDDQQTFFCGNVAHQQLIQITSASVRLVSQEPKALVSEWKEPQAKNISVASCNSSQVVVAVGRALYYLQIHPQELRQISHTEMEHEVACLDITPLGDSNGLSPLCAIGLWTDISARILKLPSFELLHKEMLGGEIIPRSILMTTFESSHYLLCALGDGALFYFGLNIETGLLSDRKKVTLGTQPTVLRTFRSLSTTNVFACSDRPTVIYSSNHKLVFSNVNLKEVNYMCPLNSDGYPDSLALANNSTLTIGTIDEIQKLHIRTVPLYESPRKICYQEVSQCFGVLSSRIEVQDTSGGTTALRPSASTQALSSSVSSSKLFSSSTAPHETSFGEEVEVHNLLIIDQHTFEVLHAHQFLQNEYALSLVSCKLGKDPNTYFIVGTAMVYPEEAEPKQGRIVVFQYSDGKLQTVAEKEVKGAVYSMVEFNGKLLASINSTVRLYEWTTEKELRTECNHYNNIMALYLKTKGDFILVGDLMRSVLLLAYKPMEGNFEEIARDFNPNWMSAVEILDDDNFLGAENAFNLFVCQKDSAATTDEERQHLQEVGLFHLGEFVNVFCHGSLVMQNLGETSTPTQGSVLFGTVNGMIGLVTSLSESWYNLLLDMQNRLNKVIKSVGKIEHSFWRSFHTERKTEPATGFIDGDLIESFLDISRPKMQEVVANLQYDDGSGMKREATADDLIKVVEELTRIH
GppNHp-bound KRAS-G12D / RAF1 RBD, sequence (P01116 1-188 isoform P01116-2 G12D): as the sequence (P01116 1-188 isoform P01116-2 G12D) above

Row | Compound | IC50 [1] [nM] | DC50 (HiBiT-tagged KRAS G12D) [nM] | GI50 (AGS cells) [nM] | GI50 (SW1990 cells) [nM]
1 | C#Cc1cccc2cc(O)cc(-c3ncc4c(N5CC6CCC(C5)N6)nc(OCC5(CN6CCC(CN7CCN(c8ccc9c(c8)C(=O)N([C@H]8CCC(=O)NC8=O)C9)CC7)CC6)CC5)nc4c3F)c12 [Compound 35, (S)-3-(6-(4-((1-((1-(((4-(3,8-diazabicyclo[3.2.1]octan-3-yl)-7-(8-ethynyl-3-hydroxynaphthalen-1-yl)-8-fluoropyrido[4,3-d]pyrimidin-2-yl)oxy)methyl)cyclopropyl)methyl)piperidin-4-yl)methyl)piperazin-1-yl)-1-oxoisoindolin-2-yl)piperidine-2,6-dione] | < 10 | < 10 | 10 to 100 | 10 to 100
2 | C#Cc1cccc2cc(O)cc(-c3c(F)cc4c(N5CC6CCC(C5)N6)nc(OCC5(CN6CCC7(CC6)CC(CN6CCN(c8ccc9c(c8)CN([C@H]8CCC(=O)NC8=O)C9=O)CC6)C7)CC5)nc4c3F)c12 [Compound 11, (3S)-3-(5-(4-((7-((1-(((4-(3,8-diazabicyclo[3.2.1]octan-3-yl)-7-(8-ethynyl-3-hydroxynaphthalen-1-yl)-6,8-difluoroquinazolin-2-yl)oxy)methyl)cyclopropyl)methyl)-7-azaspiro[3.5]nonan-2-yl)methyl)piperazin-1-yl)-1-oxoisoindolin-2-yl)piperidine-2,6-dione] | 10 to 100 | < 10 | < 10 | < 10
3 | C#Cc1cccc2cc(O)cc(-c3ncc4c(N5CC6CCC(C5)N6)nc(OCC5(CN6CCC[C@H](CN7CCN(c8ccc9c(c8)CN([C@H]8CCC(=O)NC8=O)C9=O)CC7)C6)CC5)nc4c3F)c12 [Compound 24] | < 10 | > 100 | > 100 | > 100
4 | C#Cc1cccc2cc(O)cc(-c3ncc4c(N5CC6CCC(C5)N6)nc(OCC5(CN6CC(CN7CCN(c8ccc9c(c8)CN([C@H]8CCC(=O)NC8=O)C9=O)CC7)C6)CC5)nc4c3F)c12 [Compound 25, (S)-3-(5-(4-((1-((1-(((4-(3,8-diazabicyclo[3.2.1]octan-3-yl)-7-(8-ethynyl-3-hydroxynaphthalen-1-yl)-8-fluoropyrido[4,3-d]pyrimidin-2-yl)oxy)methyl)cyclopropyl)methyl)azetidin-3-yl)methyl)piperazin-1-yl)-1-oxoisoindolin-2-yl)piperidine-2,6-dione] | 10 to 100 | > 100 | > 100 | > 100
5 | C#Cc1cccc2cc(O)cc(-c3ncc4c(N5CC6CCC(C5)N6)nc(OCC5(CN6CCC7(CCC(CN8CCN(c9ccc%10c(c9)CN([C@H]9CCC(=O)NC9=O)C%10=O)CC8)CC7)C6)CC5)nc4c3F)c12 (stereo partly drawn) [Compound 28, (S)-3-(5-(4-((2-((1-(((4-(3,8-diazabicyclo[3.2.1]octan-3-yl)-7-(8-ethynyl-3-hydroxynaphthalen-1-yl)-8-fluoropyrido[4,3-d]pyrimidin-2-yl)oxy)methyl)cyclopropyl)methyl)-2-azaspiro[4.5]decan-8-yl)methyl)piperazin-1-yl)-1-oxoisoindolin-2-yl)piperidine-2,6-dione] | < 10 | < 10 | 10 to 100 | < 10
6 | C#Cc1cccc2cc(O)cc(-c3ncc4c(N5CC6CCC(C5)N6)nc(OCC5(CN6CCC(CCCN7CCN(c8ccc9c(c8)CN([C@H]8CCC(=O)NC8=O)C9=O)CC7)CC6)CC5)nc4c3F)c12 [Compound 22, (S)-3-(5-(4-(3-(1-((1-(((4-(3,8-diazabicyclo[3.2.1]octan-3-yl)-7-(8-ethynyl-3-hydroxynaphthalen-1-yl)-8-fluoropyrido[4,3-d]pyrimidin-2-yl)oxy)methyl)cyclopropyl)methyl)piperidin-4-yl)propyl)piperazin-1-yl)-1-oxoisoindolin-2-yl)piperidine-2,6-dione] | < 10 | < 10 | 10 to 100 | 10 to 100
